From patent publication US11136297B2, “Compositions and methods for treating cancer” (THE REGENTS OF THE UNIVERSITY OF CALIFORNIA, priority 2016, dated 2021)

Assays:
[1] = target: T1, H-Ras(M72C) GDP binding to SOScat (Homo sapiens, UniProt P01112, M72C); assay: Ras GDP in vitro pull down by His6 tagged SOScat
T1 construct: and H-Ras (residues 1-166) were transformed into Escherichia coli; His6; made in house; host or cells: Escherichia coli BL21(DE3)
Experimental: Ras GDP In Vitro Pull Down Assay by His6 Tagged SOS^CAT
This experiment was created based on a procedure published in Hall et al., 2001. For each SOS^CAT in vitro pull down the total volume was 500 μL. Each reaction had the following final composition: Either 20, 80, 200, 400, or 800 nM Ras GDP (from 0.2 mg/mL Ras stock), 75 nM BSA (2.5 μg, 5 μL of 0.5 mg/mL BSA stock), 200 nM of His6-SOS^CAT (6 μg, 3 μL of diluted 0.2 mg/mL stock of His6-SOS^CAT), and SOS^CAT Pull Down Buffer to volume (20 mM Tris (pH 7.6), 50 mM NaCl, 5 mM EDTA, 1% Triton X-100, 20 mM imidazole). Samples were then mixed by gentle rotation at 4° C. for 30 min. While equilibrating, add 50 μL Ni-NTA slurry (Qiagen) to a cellulose acetate spin cup and spin at 5,000 rpm on a tabletop centrifuge for 30 seconds. Wash the beads with 400 μL of SOS^CAT Pull Down Buffer to wash away bead storage buffer. Before adding each pull down solution, take 10 μL and save as a loading control sample. To each spin cup filled with washed Ni-NTA beads, add the remaining equilibrated pull down solution, seal the spin cup with parafilm and let rotate at 4° C. for 30 more minutes. After mixing, centrifuge the sample for 30 seconds at 5,000 rpm. Toss flow through. Wash the beads×5 with 400 μL of SOS^CAT Pull Down Buffer. After last wash, centrifuge one last time to remove any excess buffer stuck to the beads. To each cup, add 50 μL of 5×SDS loading buffer and mix by vortexing. Let the buffer sit on the beads for 5 minutes and then elute into a fresh tube by centrifuging at 5000 rpm for 1.5 minutes. Load 10 μL of each loading control sample and 25 μL of each eluted pull down onto a SDS-PAGE gel and transfer to a nitrocellulose blot for Western Blot analysis. Block with 5% BSA TBS buffer and then blot with pan Ras primary antibody at a 1:500 dilution in 5% BSA in TBST (Cell Signaling #3965). Blots were read out using LICOR compatible secondary antibodies and quantified. The largest input signal was normalized to one for each protein construct and each pull-down signal (i.e. 20 nM, 80 nM, 200 nM, 400 nM, and 800 nM respectively) was reported relative to that maximum signal. Thus, normalized pull-down signals represent the proportion of Ras pulled down relative to the maximum blot signal detected for that particular protein construct.

[2] = target: T2, H-Ras(M72C) GppNHp binding to Raf-1-RBD (Homo sapiens, UniProt P01112, M72C); assay: Ras GppNHp in vitro pull down by His6-MBP-Raf-1-RBD; conditions: H-Ras(M72C) pre-labeled with compound
T2 construct: and H-Ras (residues 1-166) were transformed into Escherichia coli; His6; made in house; host or cells: Escherichia coli BL21(DE3)
Experimental: Ras GppNHp In Vitro Pull Down Assay by His6-MBP-Raf-1-RBD. For each His6-MBP-Raf-1-RBD in vitro pull down the total volume was 500 μL. Each reaction had the following final composition: Either 20, 80, 200, 400, or 800 nM Ras GppNHp (from 0.2 mg/mL Ras stock), 75 nM BSA (2.5 μg, 5 μL of 0.5 mg/mL BSA stock), 200 nM of His6-MBP-Raf-1-RBD (5.3 μg, 1.2 μL of 4.38 mg/mL stock of His6-MBP-Raf-1-RBDwitt), and Raf Pull Down Buffer to volume (25 mM Tris (pH 7.2), 150 mM NaCl, 5 mM MgCl2, 1% NP-40, 5% glycerol, 20 mM imidazole). Samples were then mixed by gentle rotation at 4° C. for 30 min. While equilibrating, add 50 μL Ni-NTA slurry (Qiagen) to a cellulose acetate spin cup and spin at 5,000 rpm on a tabletop centrifuge for 30 seconds. Wash the beads with 400 μL of Raf Pull Down Buffer to wash away bead storage buffer. Before adding each pull down solution, take 10 μL and save as a loading control sample. To each spin cup filled with washed Ni-NTA beads, add the remaining equilibrated pull down solution, seal the spin cup with parafilm and let rotate at 4° C. for 30 more minutes. After mixing, centrifuge the sample for 30 seconds at 5,000 rpm. Toss flow through. Wash the beads X 5 with 400 μL of Raf Pull Down Buffer. After last wash, centrifuge one last time to remove any excess buffer stuck to the beads. […] Blots were read out using LICOR compatible secondary antibodies. […]

1-169 K-Ras(M72C) GDP = target: T3, 1-169 K-Ras(M72C) GDP (Homo sapiens, UniProt P01116, M72C); assay: Disulfide tethering screen, percent modification by intact protein mass spectrometry; type: binding; conditions: screening βME 1 mM
T3 construct: Untagged recombinant 1-169 K-Ras(M72C) GDP; His6 (cleaved yes); made in house; host or cells: Escherichia coli BL21(DE3)
Source text: In some embodiments, a library of disulfide compounds may be screened against a cysteine-containing protein in the presence of a reducing agent such as β-mercaptoethanol (BME). Compounds with complementary binding contacts with a region of the protein near the cysteine may shift the disulfide exchange equilibrium away from BME modification of the cysteine thiol and enhance the ratio of the hit ligand bound to the cysteine. The resulting mass change of the protein can be readily detected by mass spectrometry, and the percentage of modified protein can be used as a measure of potency. Compounds which exchange with the cysteine without conferring affinity should exchange with reducing agent equally well and will not shift the equilibrium toward protein modification. The potency of various compounds at a given concentration of BME may be compared by calculating the dose-response 50 (DR50), which is the concentration of compound at which the protein becomes 50% modified.
A tethering library of 960 disulfides were screened against 1-169 K-Ras(M72C) GDP using intact protein mass spectrometry to monitor percent modification (See Methods, and FIG. 37). […] To better prioritize tethering fragments, a βME50 value (the concentration of βME needed to reduce disulfide fragment modification to 50%) was determined for each compound. […]

COc1ccc(-n2ncc(C(=O)NCCCSSCCN(C)C)c2C(F)(F)F)cc1 [Compound 2C07, N-(3-((2-(dimethylamino)ethyl)disulfanyl)propyl)-1-(4-methoxyphenyl)-5-(trifluoromethyl)-1H-pyrazole-4-carboxamide]
Normalized Averaged Pull Down (SOS PD Assay) ([1]; H-Ras(M72C) 2C07, [Ras] printed 200 nM, input normalized 1.00): 0.09 | Normalized Averaged Pull Down (SOS PD Assay) ([1]; H-Ras(M72C) 2C07, [Ras] 20 nM): 0.002 | Normalized Averaged Pull Down (SOS PD Assay) ([1]; H-Ras(M72C) 2C07, [Ras] 80 nM): 0.01 | Normalized Averaged Pull Down (SOS PD Assay) ([1]; H-Ras(M72C) 2C07, [Ras] 200 nM): 0.03 | Normalized Averaged Pull Down (SOS PD Assay) ([1]; H-Ras(M72C) 2C07, [Ras] 400 nM): 0.06 | Raf-1-RBD binding (pull down), labeled vs unlabeled H-Ras(M72C) [2]: no significant difference in Raf-1-RBD binding | percent modification (1-169 K-Ras(M72C) GDP): 69.7%
